In publication PMC11292009, “Mapping protein binding sites by photoreactive fragment pharmacophores” (Communications Chemistry, 2024):

Legend:
Format in all cases: binding
myoglobin (Myo) = experiment: Intact protein MS photoaffinity labeling screen, myoglobin; settings: intact protein MS after 10 min irradiation
Method in brief: (§1)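 Fragments are tested singly per well. Protein and fragment incubate 15 min for non-covalent association, then the plate goes directly to intact protein mass spectrometry, where mass shifts matching fragment addition give the labeling %.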

STAT5B-NTD [1] = tested on: T1, STAT5B-NTD; experiment: Intact MS labeling screen, STAT5B-NTD conjugated with photocatalyst Ir-G2-PEG3-COOH (450 nm); settings: 450 nm 10 min;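 further: 0.14 µL of 100 mM DMSO fragment stock added to the conjugate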
T1 construct: His-SUMO (N, cleaved yes); made in house; host or cells: E. coli BL21 RILP
Method in brief: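 Ir-G2-PEG3-COOH photocatalyst (10 eq) activated 30 min with EDC/NHS/BOP, then conjugated to STAT5B-NTD (7 µM) overnight at RT or 1 h at 37 °C in dark. PhP added, 1 h dark, then 450 nm irradiation 10 min at 4 °C; labeling read by intact LC-MS, positive ion mode, m/z 100–2000.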

lysozyme (Lyo) = experiment: Intact protein MS photoaffinity labeling screen, lysozyme; settings: intact protein MS after 10 min irradiation
Method in brief: as §1

KRas^G12D = tested on: T2, KRas^G12D; experiment: Intact MS photoaffinity labeling screen, KRas G12D (302 nm, LCMS-TOF); settings: for MS labeling percentage, KRas: KRas G12D, 302 nm 10 min; for KRAS-G12D: experimental hit status flag (0/1)
T2 construct: purchased GSK/GenScript
Method in brief: (§2)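 Labeling detected as mass additions in deconvoluted intact-protein LCMS-TOF spectra. Protein at 1 μM in PBS was first mixed with one fragment per well on ice for 15 min, followed by 10 min UV exposure at 302 nm.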

STAT5B-NTD [2] = tested on: T1, STAT5B-NTD; experiment: Intact MS photoaffinity labeling screen, STAT5B-NTD (365 nm, UHPLC-MS); settings: for MS labeling percentage, STAT5B: STAT5B-NTD, 365 nm 10 min, no photocatalyst; for STAT5B-NTD: experimental hit status flag (0/1);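 on MS labeling percentage, STAT5B: 0.17 µL of 100 mM DMSO fragment stock added to the protein sample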
Method in brief: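 Intact-protein labeling detected by UHPLC-MS in positive ion mode over m/z 100–2000. Samples were first photo-crosslinked at 365 nm for 10 min at 4 °C. Before irradiation, 7 µM STAT5B in PBS pH 7.4 was pre-incubated with probe for 1 h in the dark at room temperature.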

[3] = tested on: carbonic anhydrase II (CA); experiment: Intact protein MS photoaffinity labeling screen, carbonic anhydrase; settings: intact protein MS after 10 min irradiation
Method in brief: as §1

BRD4-BD1 = tested on: T3, BRD4-BD1; experiment: Intact MS photoaffinity labeling screen, BRD4-BD1 (302 nm, LCMS-TOF); settings: for MS labeling percentage, BRD4: BRD4-BD1, 302 nm 10 min; for BRD4-BD1: experimental hit status flag (0/1)
T3 construct: screened the PhP library against the first bromodomain of BRD4 (BRD4-BD1); purchased GSK/GenScript
Method in brief: as §2

[4] = sheet PhP, experimental hit status flag given as 0 or 1
[5] = hit flag 1/0, sheet PhP, photoaffinity labeling screen
[6] = PhP library sheet "PhP", binary flag printed as 0 or 1, key not given
[7] = hit status flag, 1 = hit, 0 = no hit

Row | MS labeling percentage, CA [3] [%] | Compound | MS labeling percentage, Myo (myoglobin (Myo)) [%] | MS labeling percentage, STAT5B+photocat (STAT5B-NTD [1]) [%] | MS labeling percentage, Lyo (lysozyme (Lyo)) [%] | MS labeling percentage, KRas (KRas^G12D) [%] | MS labeling percentage, STAT5B (STAT5B-NTD [2]) [%] | MS labeling percentage, BRD4 (BRD4-BD1) [%] | further results
1 | 0.2 | COc1ccccc1OCCNC(=O)CCC1(C)N=N1 [PhP044, COc1ccccc1OCCNC(=O)CCC2(C)N=N2] | 0 | 1.4 | 0 | 0 | 1 | 0.2 | KRAS-G12D (experimental hit status) (KRas^G12D; [5]): 0; STAT5B-NTD (experimental hit status) (STAT5B-NTD [2]; [5]): 0; BRD4-BD1 (experimental hit status) (BRD4-BD1; [5]): 0
2 | 0.7 | Cn1cnc(CCNC(=O)CCC2(C)N=N2)c1 [PhP091, Cn1cnc(c1)CCNC(=O)CCC2(C)N=N2] | 0.1 | 0.3 | 0 | 0.2 | 0 | 0.2 | KRAS-G12D (experimental hit status) (KRas^G12D; [6]): 0; STAT5B-NTD (experimental hit status) (STAT5B-NTD [2]; [6]): 0; BRD4-BD1 (experimental hit status) (BRD4-BD1; [6]): 0
3 | 0 | C[C@@H](NC(=O)CCC1(C)N=N1)[C@@H](O)c1cccc(O)c1 [PhP070, Oc(c1)cccc1[C@H](O)[C@@H](C)NC(=O)CCC2(C)N=N2] | 0.1 | 4.2 | 1 | 0 | 1 | 0.3 | KRAS-G12D (experimental hit status) (KRas^G12D; [4]): 0; STAT5B-NTD (experimental hit status) (STAT5B-NTD [2]; [4]): 0; BRD4-BD1 (experimental hit status) (BRD4-BD1; [4]): 0
4 | 0.3 | COc1nc(C)cc(C)c1CNC(=O)CCC1(C)N=N1 [PhP068, COc1nc(C)cc(C)c1CNC(=O)CCC2(C)N=N2] | 0.4 | 4.4 | 0 | 0 | 1 | 1 | KRAS-G12D (experimental hit status) (KRas^G12D; [4]): 0; STAT5B-NTD (experimental hit status) (STAT5B-NTD [2]; [4]): 0; BRD4-BD1 (experimental hit status) (BRD4-BD1; [4]): 0
5 | 0.3 | Cc1cccc2nc(CNC(=O)CCC3(C)N=N3)[nH]c12 [PhP023, c1ccc(C)c(c12)[nH]c(n2)CNC(=O)CCC3(C)N=N3] | 0.2 | 0 | 0 | 0.7 | 1 | 0.9 | experimental hit status KRAS-G12D (KRas^G12D; 0/1 flag): 0; experimental hit status STAT5B-NTD (STAT5B-NTD [2]; 0/1 flag): 0; experimental hit status BRD4-BD1 (BRD4-BD1; 0/1 flag): 0
6 | 0.1 | Cc1[nH]c2ccc(CNC(=O)CCC3(C)N=N3)cc2c1C [PhP004, Cc([nH]1)c(C)c(c12)cc(cc2)CNC(=O)CCC3(C)N=N3] | 0.3 | 13 | 0 | 0.7 | 2.9 |  | KRAS-G12D (KRas^G12D): 0; STAT5B-NTD (STAT5B-NTD [2]): 0; BRD4-BD1 (BRD4-BD1): 0
7 | 0.2 | Cc1n[nH]c(C)c1CCNC(=O)CCC1(C)N=N1 [PhP061, Cc1n[nH]c(C)c1CCNC(=O)CCC2(C)N=N2] | 0.2 | 0 | 0 | 0.1 | 1 | 0.2 | KRAS-G12D (experimental hit status) (KRas^G12D; [4]): 0; STAT5B-NTD (experimental hit status) (STAT5B-NTD [2]; [4]): 0; BRD4-BD1 (experimental hit status) (BRD4-BD1; [4]): 0
8 | 0.1 | CN(C)CC(=O)Nc1cccc(NC(=O)CCC2(C)N=N2)c1 [PhP100, CN(C)CC(=O)Nc1cccc(c1)NC(=O)CCC2(C)N=N2] | 0.1 | 0 | 0 | 0 | 1 | 0.6 | KRAS-G12D (experimental hit status) (KRas^G12D; [7]): 0; STAT5B-NTD (experimental hit status) (STAT5B-NTD [2]; [7]): 0; BRD4-BD1 (experimental hit status) (BRD4-BD1; [7]): 0
9 | 0.3 | COC(=O)C(Cc1c[nH]c2ccccc12)NC(=O)CCC1(C)N=N1 (stereo not drawn) [PhP014, N1=NC1(C)CCC(=O)NC(C(=O)OC)Cc(c[nH]2)c(c23)cccc3] | 0.1 | 7.7 | 0.3 | 1.3 | 2 | 0.4 | KRAS-G12D (KRas^G12D): 0; STAT5B-NTD (STAT5B-NTD [2]): 0; BRD4-BD1 (BRD4-BD1): 0

Further lines, the compound ahead of its results:

Row | Compound | MS labeling percentage, CA [3] [%] | MS labeling percentage, Myo (myoglobin (Myo)) [%] | MS labeling percentage, STAT5B+photocat (STAT5B-NTD [1]) [%] | MS labeling percentage, Lyo (lysozyme (Lyo)) [%] | MS labeling percentage, KRas (KRas^G12D) [%] | MS labeling percentage, STAT5B (STAT5B-NTD [2]) [%] | MS labeling percentage, BRD4 (BRD4-BD1) [%] | further results
10 | CC1(CCC(=O)NC(CO)Cc2c[nH]c3ccccc23)N=N1 (stereo not drawn) [PhP064, N1=NC1(C)CCC(=O)NC(CO)Cc(c[nH]2)c(c23)cccc3] | 0.5 | 0.3 | 1.9 | 0.7 | 3.1 | 2.9 | 1.1 | KRAS-G12D (experimental hit status) (KRas^G12D; [4]): 0; STAT5B-NTD (experimental hit status) (STAT5B-NTD [2]; [4]): 0; BRD4-BD1 (experimental hit status) (BRD4-BD1; [4]): 0
11 | CC1(CCC(=O)Nc2ccc(N3CCCCC3)cc2C(N)=O)N=N1 [PhP054, N1=NC1(C)CCC(=O)Nc2ccc(cc2C(=O)N)N3CCCCC3] | 0 | 0 | 9.8 | 0 | 0 | 2.9 | 0.6 | KRAS-G12D (experimental hit status) (KRas^G12D; [5]): 0; STAT5B-NTD (experimental hit status) (STAT5B-NTD [2]; [5]): 0; BRD4-BD1 (experimental hit status) (BRD4-BD1; [5]): 0
12 | CC1(CCC(=O)NCCCN2CCN(C(=O)OC(C)(C)C)CC2)N=N1 [PhP056, CC(C)(C)OC(=O)N1CCN(CC1)CCCNC(=O)CCC2(C)N=N2] | 0.3 | 0 | 1.2 | 0 | 0 | 0 | 0.2 | KRAS-G12D (experimental hit status) (KRas^G12D; [5]): 0; STAT5B-NTD (experimental hit status) (STAT5B-NTD [2]; [5]): 0; BRD4-BD1 (experimental hit status) (BRD4-BD1; [5]): 0
13 | CC1(CCC(=O)Nc2cccc(-n3cnnn3)c2)N=N1 [PhP042, N1=NC1(C)CCC(=O)Nc2cccc(c2)-n3cnnn3] | 0.9 | 0.2 | 17.8 | 0 | 0.5 | 2 | 1 | KRAS-G12D (experimental hit status) (KRas^G12D; [5]): 0; STAT5B-NTD (experimental hit status) (STAT5B-NTD [2]; [5]): 0; BRD4-BD1 (experimental hit status) (BRD4-BD1; [5]): 0
14 | CC(Cc1cccc(OCc2ccccc2)c1)NC(=O)CCC1(C)N=N1 (stereo not drawn) [PhP013, N1=NC1(C)CCC(=O)NC(C)Cc2cccc(c2)OCc3ccccc3] | 0.4 | 0.3 | 8.8 | 0.3 |  | 0 | 40.6 | KRAS-G12D (KRas^G12D): 0; STAT5B-NTD (STAT5B-NTD [2]): 0; BRD4-BD1 (BRD4-BD1): 0
15 | CC1(CCC(=O)Nc2nc(-c3c[nH]c(C(N)=O)c3)cs2)N=N1 [PhP011, N1=NC1(C)CCC(=O)Nc2nc(cs2)-c3c[nH]c(c3)C(=O)N] | 0 | 0 | 3.4 | 0 | 0.2 | 2 | 0.2 | KRAS-G12D (KRas^G12D): 0; STAT5B-NTD (STAT5B-NTD [2]): 0; BRD4-BD1 (BRD4-BD1): 0
16 | CC1(CCC(=O)Nc2ccc3c(c2)NC(=O)CC3)N=N1 [PhP075, N1=NC1(C)CCC(=O)Nc(cc2)cc(c23)NC(=O)CC3] | 0.2 | 0.1 | 0.5 | 0 | 0.2 | 2 | 1.3 | KRAS-G12D (experimental hit status) (KRas^G12D; [4]): 0; STAT5B-NTD (experimental hit status) (STAT5B-NTD [2]; [4]): 0; BRD4-BD1 (experimental hit status) (BRD4-BD1; [4]): 0
17 | CC1(CCC(=O)Nc2ccc3oc(CN4CCCC4)nc3c2)N=N1 [PhP089, N1=NC1(C)CCC(=O)Nc2ccc3oc(CN4CCCC4)nc3c2] | 0.4 | 0.1 | 1 | 0 | 0 | 1 | 0.2 | KRAS-G12D (experimental hit status) (KRas^G12D; [6]): 0; STAT5B-NTD (experimental hit status) (STAT5B-NTD [2]; [6]): 0; BRD4-BD1 (experimental hit status) (BRD4-BD1; [6]): 0
